{"source": "patent US20250205234A1", "about": "“ANTI-TUBERCULAR COMPOSITIONS” (priority 2022, published 2025)", "key": {"[1]": {"test_system": "E. coli UTI 189", "test": "Biofilm assay, E. coli", "type": "cell-based, Escherichia coli", "conditions": "3 h pre-formed biofilm; 3-9 μM GaMF1.39 or 1-3 μM BDQ; PBS or M9 glucose media"}, "[2]": {"test_system": "P. aeruginosa PAO1 WT", "test": "Biofilm assay, P. aeruginosa", "type": "cell-based, Pseudomonas aeruginosa", "conditions": "3 h pre-formed biofilm; 3-9 μM GaMF1.39 or 1-3 μM BDQ; PBS or M9 glucose media"}, "[3]": {"test_system": "M. smegmatis F-ATP synthase", "type": "biochemical", "conditions": "for Inhibition of ATP synthesis of reconstituted MsF-ATP synthase: compound at its IC50 concentration (BDQ 4 nM; GaMF1.39 90 nM)"}, "[4]": {"test_system": "M. bovis BCG", "test": "microbe, parasite or virus in culture", "type": "cell-based", "conditions": "for MIC: Mycobacterium tuberculosis variant bovis BCG, BCG"}, "[5]": {"test": "Microsomal stability assay", "type": "in vitro ADME", "conditions": "pH 7.4; mouse liver microsomes", "experimental": "Microsomal stability assay were outsourced and performed by Bioduro-Sundia Ltd, USA based on the following protocol as done in Obach, R. S., Drug Metab. Dispos., 1999, 27, 1350; McGinnity, D. F. & Riley, R. J., Biochem. Soc. Trans., 2001, 29, 135. Working solutions of each compound are prepared from 10 mM stock solution in DMSO diluted to a final concentration of 100 μM in 0.05 M phosphate buffer (pH 7.4). Aliquots of Liver Microsome working solution are transferred into 1.1 mL tubes using a multichannel pipette. Positive control (5 mixed) and test compound working solutions are transferred into the tubes. The mixtures are vortexed gently and then pre-incubated at 37° C. 5 mM NADPH were aliquoted into the tubes using a multichannel pipette and vortexed gently. At each time point of 0 min, 5 min, 15 min, 30 min and 60 min with NADPH or 0, 30 min and 60 min without NADPH, an aliquot is removed from each tube. […] Each compound is analyzed by reversed phase HPLC using a Kinetex 2.6μ C18 100 Å column (3.0 mm×30 mm, Phenomenex). […] The amount of parent compound is determined on the basis of the peak area ratio (compound area to IS area) for each time point. The estimation of Clint (in μL/min/mg protein) is calculated using the following equation: CLint (μLmin^−1 mg^−1)=ln(2)*1000/t1/2/protein concentration"}, "[6]": {"test_system": "M. bovis BCG", "type": "cell-based", "conditions": "7 μM, 96 h, methylene blue"}, "[7]": {"test_system": "Mtb", "conditions": "Hotra et al. 2020; cited from earlier work"}, "[8]": {"test_system": "M. bovis BCG", "test": "microbe, parasite or virus in culture", "type": "cell-based", "conditions": "Mycobacterium tuberculosis variant bovis BCG, 120 h, read-out: minimal inhibitory concentration (MIC50)"}, "[9]": {"test_system": "zebrafish embryos", "test": "Toxicity testing using zebrafish embryos", "type": "in vivo", "conditions": "9 μM, 48 hpf embryos, 5 days", "experimental": "Zebrafish care and ethics statement: All Zebrafish experiments were approved by the NTU Institutional Animal Care and Use Committee under reference no #A20038. Experiments were done using wild-type AB zebrafish. The ages of the embryos are shown in hours post fertilization (hpf).\nDechorionated zebrafish wild-type embryos at 48 hpf (n=120) were used. The embryos were immersed respectively in 5 ml of E3 medium containing GaMF1.39 in 6-well plate for 5 days. DMSO was used as vehicle control. The embryos were observed under a microscope. […] The experiment was repeated twice with three replicates each."}, "[10]": {"test_system": "M. tuberculosis H37Rv-infected THP-1 cells", "test": "THP-1 macrophage infection model, intracellular efficacy"}, "[11]": {"test_system": "mycobacterial F-ATP synthase", "conditions": "IMVs of M. smegmatis, NADH; read-out: IC50 NADH-driven ATP synthesis of IMVs; cited from earlier work"}, "[12]": {"test_system": "M. smegmatis mc^2 155", "type": "cell-based"}, "[13]": {"biological_target": "mycobacterial F-ATP synthase (Mycobacterium bovis, UniProt A1KI93+A1KI97)", "sequence (A1KI93 whole entry, looked up)": "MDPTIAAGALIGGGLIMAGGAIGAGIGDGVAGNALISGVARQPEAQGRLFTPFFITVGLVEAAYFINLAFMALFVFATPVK", "sequence (A1KI97 whole entry, looked up)": "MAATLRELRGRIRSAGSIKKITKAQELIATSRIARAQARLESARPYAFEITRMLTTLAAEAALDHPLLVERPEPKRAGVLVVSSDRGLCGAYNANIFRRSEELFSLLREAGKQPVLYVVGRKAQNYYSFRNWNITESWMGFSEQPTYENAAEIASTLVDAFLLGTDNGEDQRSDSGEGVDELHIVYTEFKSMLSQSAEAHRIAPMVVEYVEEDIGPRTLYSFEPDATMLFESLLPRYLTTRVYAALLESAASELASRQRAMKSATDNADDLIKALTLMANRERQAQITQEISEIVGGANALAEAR", "conditions": "read-out: IC50 NADH-driven ATP synthesis of IMVs, IMVs of M. bovis BCG; cited from earlier work"}, "[14]": {"biological_target": "M. smegmatis 166M c-subunit mutant IMVs (Mycolicibacterium smegmatis, UniProt A0R201+A0R205+A0R206, I70M)", "test": "biochemical", "conditions": "read-out: IC50 ATP synthesis, 166M mutant IMVs"}, "[15]": {"test_system": "M. bovis BCG cells", "test": "microbe, parasite or virus in culture", "type": "cell-based", "conditions": "Mycobacterium tuberculosis variant bovis BCG, read-out: IC50 intracellular ATP inhibition"}, "[16]": {"test_system": "M. bovis BCG", "type": "cell-based"}, "[17]": {"test_system": "transmembrane pH gradient of mycobacterial IMVs", "test": "Proton translocation / uncoupling assay in IMVs (ACMA fluorescence quenching)", "type": "biochemical, M. smegmatis", "conditions": "2 mM NADH, uncoupler SF6847 as positive control"}}, "note": "Read-outs that look alike come from different tables or passages of the source."}
{"smiles": "COc1nc2ccc(Br)cc2cc1[C@@H](c1ccccc1)[C@@](O)(CCN(C)C)c1cccc2ccccc12", "note": "[BDQ, bedaquiline, reference compound]", "values": [{"measurement": "Killing of planktonic or biofilm cells", "setting": "[1]", "result": "No significant differences"}, {"measurement": "Killing of planktonic or biofilm cells", "setting": "[2]", "result": "No significant differences"}, {"measurement": "Inhibition of ATP synthesis of reconstituted MsF-ATP synthase", "setting": "[3]", "result": "~51", "unit": "%"}]}
{"smiles": "CC(C)/N=c1\\cc2n(-c3ccc(Cl)cc3)c3ccccc3nc-2cc1Nc1ccc(Cl)cc1", "note": "[Clofazamine, clofazimine]", "values": [{"measurement": "MIC Drug B alone", "setting": "[4]; Clofazamine alone", "result": 0.25, "unit": "µM"}, {"measurement": "MIC Drug B in combination", "setting": "[4]; Clofazamine in combination with GaMF1.39", "result": 0.125, "unit": "µM"}]}
{"smiles": "CCNc1cc(C)nc(Nc2ccc3nc(-c4ccc(Cl)cc4)[nH]c3c2)n1", "note": "[GaMF1.39]", "values": [{"measurement": "half-life", "setting": "[5]", "result": 29.6, "unit": "min"}, {"measurement": "microsomal CLint", "setting": "[5]", "result": 46.8, "unit": "µL/min/mg"}, {"measurement": "Oxygen consumption within the respiratory chain", "setting": "[6]", "result": "unaffected"}, {"measurement": "Killing of planktonic or biofilm cells", "setting": "[1]", "result": "no killing of planktonic or biofilm cells"}, {"measurement": "MIC50 against Mtb", "setting": "[7]", "result": 3.0, "unit": "µM"}, {"measurement": "MIC50", "setting": "[8]", "result": 6.8, "unit": "µM"}, {"measurement": "Toxicity in zebrafish embryos (survival)", "setting": "[9]", "result": "no signs of toxicity-induced killing"}, {"measurement": "Killing of planktonic or biofilm cells", "setting": "[2]", "result": "no killing of planktonic or biofilm cells"}, {"measurement": "Intracellular efficacy, viable bacterial count (CFU/ml)", "setting": "[10]; 3 and 9 μM, compared with initial inoculum (day 0)", "result": "showed a decrease in viable bacterial count"}, {"measurement": "Alteration of infected macrophages (microscopy)", "setting": "[10]; THP-1 macrophages treated with GaMF1.39", "result": "did not show any visible optical alteration of the membrane, cell form or cell size"}, {"measurement": "IC50", "setting": "[11]", "result": "90 ± 1.1", "unit": "nM"}, {"measurement": "Killing of M. smegmatis mc^2 155", "setting": "[12]", "result": "killed"}, {"measurement": "IC50", "setting": "[13]", "result": "51.6 ± 1.35", "unit": "nM"}, {"measurement": "ATP synthesis activity of reconstituted MsF-ATP synthase with compound", "setting": "[3]; GaMF1.39 at its IC50 concentration, no compound 35.2±2.3", "result": "20.5±2.6 nmol·min^−1 (mg protein)^−1"}, {"measurement": "Inhibition of ATP synthesis of reconstituted MsF-ATP synthase", "setting": "[3]", "result": 42, "unit": "%"}, {"measurement": "IC50", "setting": "[14]", "result": 64, "unit": "nM"}, {"measurement": "MIC Drug A in combination", "setting": "[4]; GaMF1.39 in combination with Clofazamine", "result": 3, "unit": "µM"}, {"measurement": "MIC Drug A in combination", "setting": "[4]; GaMF1.39 in combination with Q203", "result": 0.23, "unit": "µM"}, {"measurement": "MIC", "setting": "[4]; 144 h, read-out: MIC Drug A alone", "result": 6.8, "unit": "µM"}, {"measurement": "IC50", "setting": "[15]", "result": 3300, "unit": "nM"}, {"measurement": "Killing efficiency against M. bovis BCG", "setting": "[16]; 8-fold its MIC50, up to 6 days, CFU", "result": "more efficient than its parental molecule GaMF1"}, {"measurement": "Growth of M. bovis BCG cultures in killing kinetics experiment", "setting": "[16]; GaMF1.39 10×MIC50, with or without Q203 100 nM, t=10 days", "result": "inhibited the growth of M. bovis cells even after 10 days"}, {"measurement": "Uncoupled proton pumping (ACMA quenching)", "setting": "[17]", "result": "lacked the ability to induce uncoupled proton pumping"}]}
{"smiles": "CCc1nc2ccc(Cl)cn2c1C(=O)NCc1ccc(N2CCC(c3ccc(OC(F)(F)F)cc3)CC2)cc1", "note": "[Q203, Telacebec]", "values": [{"measurement": "MIC", "setting": "[4]; read-out: MIC Drug B alone", "result": 0.001, "unit": "µM"}, {"measurement": "MIC Drug B in combination", "setting": "[4]; Q203 in combination with GaMF1.39", "result": 0.0005, "unit": "µM"}]}
